Patent publication US20150152101A1, “ACTIVE COMPOUNDS FOR COMBATING GREASY SKIN” (L'OREAL, priority 2012, published 2015)

Tests used:
Format in all cases: cell-based
corneodesmosin = assay: Western blot of corneodesmosin in extracts of treated Episkin reconstructed epidermis; conditions: systemic treatment over 5 days, grade relative to reference, generally for the highest concentration used (tested 1 and 10 μM), (*) = most active
Procedure: (§1) The samples of reconstructed epidermis, received from the company Episkin at six days of reconstruction, were recultured as soon as received in 3.5 ml of differentiation medium (Episkin™ medium) under insert (in immersion) for 48 hours in an incubator (37° C., 5% CO2).
(§2) The epidermis samples were then placed in contact with the test compounds systemically. The Episkin™ differentiation culture medium is changed for a differentiation medium containing the test compounds with 0.1% of final DMSO vehicle. The epidermis samples were recultured in an incubator for 48 hours. A new systemic treatment is performed for a further 72 hours of culture in the incubator.
For the treatment on Episkin™, each test compound was prepared extemporaneously by weighing out and dissolving at 10 mM in DMSO, and was then used to treat 3 samples of reconstructed epidermis. Furthermore, each test compound was used in a proportion of 1 and 10 μM final in the culture medium (0.1% DMSO final). The positive controls used were vitamin D3, retinol and calcipotriol (a vitamin D3 analogue).
The epidermis samples were collected (3 epidermis samples per treatment) for histological analysis and protein extracts (the same reconstructed epidermis is used for the histological study and the protein extract). […]

Ki67 = Ki67 immunolabelling of treated Episkin reconstructed epidermis; conditions: for Ki67: Episkin, systemic treatment over 5 days
Procedure: as §1, §2
(§3) For the treatment on Episkin™, each test compound was prepared extemporaneously by weighing out and dissolving at 10 mM in DMSO, and was then used to treat 3 samples of reconstructed epidermis. […] The positive controls used were vitamin D3, retinol and calcipotriol (a vitamin D3 analogue).
(§4) The epidermis samples were collected (3 epidermis samples per treatment) for histological analysis and protein extracts (the same reconstructed epidermis is used for the histological study and the protein extract).
The epidermis samples were included in OCT for freezing in liquid nitrogen and then stored at −80° C. The blocks obtained were sliced using a cryostat to a thickness of 7 μm, and the slices were dried and stored at −20° C. while awaiting immunolabelling.
The marker chosen for the immunolabellings is Ki67, which affords information regarding a possible modification of the cell proliferation in the basal layer.

[1] = test system: Episkin™ reconstructed epidermis; assay: HES morphological observation of treated Episkin reconstructed epidermis; conditions: systemic treatment over 5 days
Procedure: as §1, §2, §3, §4
The morphological control of the treated reconstructed epidermis samples was performed by staining with HES (haematoxylin-eosin-saffron) according to a standard protocol on histological slices of the samples included in paraffin (toluene bath: three times 15 minutes; 100° alcohol baths: twice for 1 minute; 95° alcohol baths: 1 minute; rinsing in water baths; haematoxylin bath: once for 2 minutes; rinsing in water baths; short dipping in a hydrochloric acid bath; rinsing in water; eosin bath: once for 1 minute; rinsing in water; short dipping in a 100° alcohol bath; saffron bath (5 minutes); short dipping in a 100° alcohol bath; toluene bath: three times for 2 minutes).

[2] = grade relative to reference, generally for the highest concentration used (tested 1 and 10 μM), (*) = most active

SMILES	CDSN (corneodesmosin)	HES [1, 2]	other results
COc1cccc(C2C3=C(Nc4c2c(=O)n(C)c(=O)n4C)c2ccccc2C3=O)c1 (centres unmarked) [Compound (1)]	++ (*)	–	–
Cn1c2c(c(=O)n(C)c1=O)C(c1cccc(O)c1)C1=C(N2)c2ccccc2C1=O (centres unmarked) [Compound (2)]	–	–	Ki67 (Ki67; grade relative to reference, generally for the highest concentration used (tested 1 and 10 μM)): 0
Cn1c2c(c(=O)n(C)c1=O)C(c1ccc(O)cc1)C1=C(N2)c2ccccc2C1=O (centres unmarked) [Compound (5)]	–	–	Ki67 labelling (FIG. 2) (Ki67; Episkin treated in the absence and presence of compound, result in words): marked, or even occasionally total, decrease of the Ki67 labelling
COc1cc(C2C3=C(Nc4c2c(=O)n(C)c(=O)n4C)c2ccccc2C3=O)cc(OC)c1O (centres unmarked) [Compound (6)]	–	++ (*)	–
CC1=C(/C=C/C(C)=C/C=C/C(C)=C/CO)C(C)(C)CCC1 [Retinol]	–	–	HES ([1]; 100 μM): 0; Ki67 (Ki67; 100 μM): 0
C=C1CC[C@H](O)C/C1=C/C=C1\CCC[C@]2(C)[C@@H]([C@H](C)CCCC(C)C)CC[C@@H]12 [Vitamin D3]	0	0	–
